Source: patent US20200276136A1, “METHOD OF TREATING SELECTED PATIENT POPULATION EXPERIENCING DRAVET SYNDROME” (ZOGENIX INTERNATIONAL LIMITED, priority 2017, published 2020)

Legend:
[1] = tested on: patients with Dravet syndrome; experiment: Study 1 (ZX008-1501/1502), Phase 3 double-blind placebo-controlled: efficacy on seizures; assay type: in vivo, human; conditions: 0.8 mg/kg/day; end of the T+M Period
Method: The first 119 subjects to be randomized in both identical studies combined were analyzed and reported as Study 1 (FIG. 1), covered by a Statistical Analysis Plan (SAP).
Primary and key secondary endpoints in the Study 1 SAP were pre-determined. All patients were treated twice per day over a period of 14 weeks using an oral syringe to administer the formulation. The treatment period included a two-week titration period and a 12-week maintenance period.
Patients were titrated to their target dose over two weeks, and then remained at that fixed dose for 12 weeks. The mean baseline convulsive seizure frequency across the study groups was approximately 40 seizures per month. 110 (92%) patients completed the study (85% 0.8 mg/kg/day; 100% 0.2 mg/kg/day; 93% placebo).
The proportion of patients who achieved ≥75% seizure reductions, a secondary (non-key) efficacy measure, is also presented.
The mean number of convulsive seizure free days, defined as a day for which diary data are available and no convulsive seizures have been reported, was determined for each treatment group during the Baseline and T+M Periods. […]

[2] = tested on: patients with Dravet syndrome; conditions: cited from earlier work

SMILES: CCNC(C)Cc1cccc(C(F)(F)F)c1 (racemic) [Fenfluramine, (RS)—N-ethyl-1-[3-(trifluoromethyl)phenyl]propan-2-amine]
- reduction from Baseline in non-convulsive seizure frequency (all types) [1]: 59.1%
- >50% Reduction in Seizures (responders) ([2]; Fenfluramine and Valproate, average 0.34 mg/kg/day for between 1 and 22 years): 75%
- heart valve defects monitored by echocardiography ([2]; long-term treatment): No clinically relevant defects were identified
- types of seizures reduced ([2]; long-term treatment): effectively reduced the incidence of all types of seizures
